According to publication PMC5218480 (PLoS ONE, 2017):

Tested on: MV-4-11 cells
Assay: Gene expression microarray analysis (Affymetrix PrimeView) and GSEA
Format: cell-based, human
Set-up: RFU PODN (11730768_x_at) / Fold change /veh PODN (11730768_x_at) / RFU LINC00158 (11744669_a_at) / Fold change /veh LINC00158 (11744669_a_at) / RFU DUSP10 (11751237_a_at) / Fold change /veh DUSP10 (11751237_a_at) / RFU ID3 (11757404_x_at) / Fold change /veh ID3 (11757404_x_at) / RFU PLEKHG5 (11737974_s_at) / Fold change /veh PLEKHG5 (11737974_s_at) / RFU LRRC4B (11730491_at) / Fold change /veh LRRC4B (11730491_at) / RFU GIMAP4 (11747438_a_at) / Fold change /veh GIMAP4 (11747438_a_at) / RFU KRT8 (11758183_x_at) / Fold change /veh KRT8 (11758183_x_at) / RFU CNN1 (11734310_a_at) / Fold change /veh CNN1 (11734310_a_at) / RFU VPS37D (11726825_at) / Fold change /veh VPS37D (11726825_at) / RFU C10orf10 (11716522_x_at) / Fold change /veh C10orf10 (11716522_x_at) / RFU KIR2DL2 /// KIR2DL4 /// KIR2DL5A /// KIR2DL5B /// KIR2DS1 /// KIR2DS2 /// KIR2DS3 /// KIR2DS4 /// KIR3DL3 /// KIR3DL3 /// KIR3DS1 (11738374_at) / Fold change /veh KIR2DL2 /// KIR2DL4 /// KIR2DL5A /// KIR2DL5B /// KIR2DS1 /// KIR2DS2 /// KIR2DS3 /// KIR2DS4 /// KIR3DL3 /// KIR3DL3 /// KIR3DS1 (11738374_at) / RFU C1QL1 (11718748_at) / Fold change /veh C1QL1 (11718748_at) / RFU TMPRSS4 (11747572_a_at) / Fold change /veh TMPRSS4 (11747572_a_at) / RFU HAMP (11756126_x_at) / Fold change /veh HAMP (11756126_x_at) / RFU RNFT2 (11725882_a_at) / Fold change /veh RNFT2 (11725882_a_at) / RFU NR4A2 (11747474_a_at) / Fold change /veh NR4A2 (11747474_a_at) / RFU ABCC12 (11746883_a_at) / Fold change /veh ABCC12 (11746883_a_at) / RFU TMEM136 (11760407_x_at) / Fold change /veh TMEM136 (11760407_x_at) / RFU CLDN22 /// WWC2 (11732394_at) / Fold change /veh CLDN22 /// WWC2 (11732394_at) / RFU HLA-DPB1 (11760878_x_at) / Fold change /veh HLA-DPB1 (11760878_x_at) / RFU SPINT1 (11716480_a_at) / Fold change /veh SPINT1 (11716480_a_at) / RFU GAP43 (11754022_s_at) / Fold change /veh GAP43 (11754022_s_at) / RFU A4GNT (11735810_at) / Fold change /veh A4GNT (11735810_at) / RFU PRB3 (11715151_x_at) / Fold change /veh PRB3 (11715151_x_at) / RFU TUBB4B (11761932_at) / Fold change /veh TUBB4B (11761932_at) / RFU CAPN14 (11732068_a_at) / Fold change /veh CAPN14 (11732068_a_at) / RFU TMCC2 (11721928_a_at) / Fold change /veh TMCC2 (11721928_a_at) / RFU IRGQ (11745062_a_at) / Fold change /veh IRGQ (11745062_a_at) / RFU FAM174B (11720279_a_at) / Fold change /veh FAM174B (11720279_a_at) / RFU TMPRSS4 (11748680_a_at) / Fold change /veh TMPRSS4 (11748680_a_at) / RFU FAM212B (11763350_a_at) / Fold change /veh FAM212B (11763350_a_at) / RFU PLEKHG5 (11743358_a_at) / Fold change /veh PLEKHG5 (11743358_a_at) / RFU ZSCAN30 (11745921_a_at) / Fold change /veh ZSCAN30 (11745921_a_at) / RFU CMKLR1 (11741424_a_at) / Fold change /veh CMKLR1 (11741424_a_at) / RFU LOC101060620 /// MAPK8IP1 (11723275_at) / Fold change /veh LOC101060620 /// MAPK8IP1 (11723275_at) / RFU SPTSSB (11747773_x_at) / Fold change /veh SPTSSB (11747773_x_at) / RFU PRSS12 (11739890_at) / Fold change /veh PRSS12 (11739890_at) / RFU BIN1 (11741810_x_at) / Fold change /veh BIN1 (11741810_x_at) / RFU WNT11 (11732464_a_at) / Fold change /veh WNT11 (11732464_a_at) / RFU C10orf10 (11716521_a_at) / Fold change /veh C10orf10 (11716521_a_at) / RFU C5orf56 (11738089_at) / Fold change /veh C5orf56 (11738089_at) / RFU CYB561 (11721691_x_at) / Fold change /veh CYB561 (11721691_x_at) / RFU ANKRD19P (11752326_a_at) / Fold change /veh ANKRD19P (11752326_a_at) / RFU OR2T12 /// OR2T33 /// OR2T8 (11738714_s_at) / Fold change /veh OR2T12 /// OR2T33 /// OR2T8 (11738714_s_at) / RFU VCAN (11748164_a_at) / Fold change /veh VCAN (11748164_a_at) / RFU JSRP1 (11732532_at) / Fold change /veh JSRP1 (11732532_at) / RFU KRTAP10-11 (11738290_x_at) / Fold change /veh KRTAP10-11 (11738290_x_at) / RFU MYO3A (11730013_a_at) / Fold change /veh MYO3A (11730013_a_at) / RFU EBF3 (11725865_a_at) / Fold change /veh EBF3 (11725865_a_at) / RFU CAMK2N1 (11719241_x_at) / Fold change /veh CAMK2N1 (11719241_x_at) / RFU C5orf56 (11738088_a_at) / Fold change /veh C5orf56 (11738088_a_at) / RFU OLFML3 (11715873_a_at) / Fold change /veh OLFML3 (11715873_a_at) / RFU LOC100653217 /// NTM (11731650_a_at) / Fold change /veh LOC100653217 /// NTM (11731650_a_at) / RFU MAPK11 (11762145_a_at) / Fold change /veh MAPK11 (11762145_a_at) / RFU FIZ1 (11724087_x_at) / Fold change /veh FIZ1 (11724087_x_at) / RFU OASL (11726364_x_at) / Fold change /veh OASL (11726364_x_at) / RFU SOX15 (11748057_x_at) / Fold change /veh SOX15 (11748057_x_at) / RFU CD79A (11719716_a_at) / Fold change /veh CD79A (11719716_a_at) / RFU HIST1H1D (11736915_at) / Fold change /veh HIST1H1D (11736915_at) / RFU CASKIN2 (11723855_a_at) / Fold change /veh CASKIN2 (11723855_a_at) / RFU LOC730098 (11760151_x_at) / Fold change /veh LOC730098 (11760151_x_at) / RFU OR4N2 (11742367_at) / Fold change /veh OR4N2 (11742367_at) / RFU PRRT2 (11749266_a_at) / Fold change /veh PRRT2 (11749266_a_at) / RFU SNX32 (11753110_a_at) / Fold change /veh SNX32 (11753110_a_at) / RFU CDHR5 (11726645_a_at) / Fold change /veh CDHR5 (11726645_a_at) / RFU RCAN1 (11760418_a_at) / Fold change /veh RCAN1 (11760418_a_at) / RFU FAM167A (11723789_a_at) / Fold change /veh FAM167A (11723789_a_at) / RFU FAM26E (11764081_at) / Fold change /veh FAM26E (11764081_at) / RFU ISYNA1 (11749810_s_at) / Fold change /veh ISYNA1 (11749810_s_at) / RFU ACY1 (11761880_at) / Fold change /veh ACY1 (11761880_at) / RFU 11764098_at / Fold change /veh 11764098_at / RFU SAMD14 (11745864_x_at) / Fold change /veh SAMD14 (11745864_x_at) / RFU NPB (11741838_a_at) / Fold change /veh NPB (11741838_a_at) / RFU TMPRSS6 (11731388_a_at) / Fold change /veh TMPRSS6 (11731388_a_at) / RFU KRTAP10-2 (11738614_at) / Fold change /veh KRTAP10-2 (11738614_at) / RFU ARHGAP8 /// PRR5-ARHGAP8 (11727945_x_at) / Fold change /veh ARHGAP8 /// PRR5-ARHGAP8 (11727945_x_at) / RFU KRTAP5-7 /// NADSYN1 (11734609_at) / Fold change /veh KRTAP5-7 /// NADSYN1 (11734609_at) / RFU RASL12 (11751679_a_at) / Fold change /veh RASL12 (11751679_a_at) / RFU CDKN2B (11736163_a_at) / Fold change /veh CDKN2B (11736163_a_at) / RFU PRF1 (11729649_at) / Fold change /veh PRF1 (11729649_at) / RFU, ZNF638 /// ZNF638-IT1 / Fold change vs veh, ZNF638 /// ZNF638-IT1 / RFU, PANK3 / Fold change vs veh, PANK3 / RFU, SH3YL1 / Fold change vs veh, SH3YL1 / RFU, ZEB2 / Fold change vs veh, ZEB2 / RFU, NRIP1 / Fold change vs veh, NRIP1 / RFU, PTTG1IP / Fold change vs veh, PTTG1IP / RFU, CAPN2 / Fold change vs veh, CAPN2 / RFU, MED14 / Fold change vs veh, MED14 / RFU, SNORA58 / Fold change vs veh, SNORA58 / RFU, C1orf63 / Fold change vs veh, C1orf63 / RFU, LRRFIP1 / Fold change vs veh, LRRFIP1 / RFU, NDUFAF7 / Fold change vs veh, NDUFAF7 / RFU, SLC12A2 / Fold change vs veh, SLC12A2 / RFU, IBTK / Fold change vs veh, IBTK / RFU, ESF1 / Fold change vs veh, ESF1 / Fold change vs veh, TMEM50B / RFU, TAOK1 / Fold change vs veh, TAOK1 / RFU, ACBD3 / Fold change vs veh, ACBD3 / RFU, TMA16 / Fold change vs veh, TMA16 / RFU, RWDD3 / Fold change vs veh, RWDD3 / RFU, BCAT1 / Fold change vs veh, BCAT1 / RFU, EDEM3 / Fold change vs veh, EDEM3 / RFU, TMEM33 / Fold change vs veh, TMEM33 / RFU, WDR75 / Fold change vs veh, WDR75 / RFU, AHCTF1 / Fold change vs veh, AHCTF1 / RFU, TFRC / Fold change vs veh, TFRC / RFU, ZDHHC17 / Fold change vs veh, ZDHHC17 / RFU, NOM1 / Fold change vs veh, NOM1 / RFU, ARL8B / Fold change vs veh, ARL8B / RFU, ZBTB11 / Fold change vs veh, ZBTB11 / RFU, TAMM41 / Fold change vs veh, TAMM41 / RFU, KIAA1704 /// LOC100996395 / Fold change vs veh, KIAA1704 /// LOC100996395 / RFU, ING1 / Fold change vs veh, ING1 / RFU, TRMT61B / Fold change vs veh, TRMT61B / RFU, FUBP3 / Fold change vs veh, FUBP3 / RFU, TP53 / Fold change vs veh, TP53 / RFU, TNKS2 / Fold change vs veh, TNKS2 / RFU, ZFP14 / Fold change vs veh, ZFP14 / RFU, ACTR2 / Fold change vs veh, ACTR2 / RFU, PPP3R1 / Fold change vs veh, PPP3R1 / RFU, PIK3R1 / Fold change vs veh, PIK3R1 / RFU, HNRNPA1 / Fold change vs veh, HNRNPA1 / RFU, RNF170 / Fold change vs veh, RNF170 / RFU, ZNF28 / Fold change vs veh, ZNF28 / RFU, RNGTT / Fold change vs veh, RNGTT / RFU, OGT / Fold change vs veh, OGT / RFU, BRD1 / Fold change vs veh, BRD1 / RFU, MARS / Fold change vs veh, MARS / RFU, ZNF655 / Fold change vs veh, ZNF655 / RFU, FAHD1 / Fold change vs veh, FAHD1 / RFU, BDP1 / Fold change vs veh, BDP1 / RFU, LRRCC1 / Fold change vs veh, LRRCC1 / RFU, ARID1A / Fold change vs veh, ARID1A / RFU, ZNF146 / Fold change vs veh, ZNF146 / RFU, ZNF330 / Fold change vs veh, ZNF330 / RFU, GPN3 / Fold change vs veh, GPN3 / RFU, C9orf123 / Fold change vs veh, C9orf123 / RFU, N4BP2L2 / Fold change vs veh, N4BP2L2 / RFU, ARFIP1 / Fold change vs veh, ARFIP1 / RFU, FAM179B / Fold change vs veh, FAM179B / RFU, BCL10 / Fold change vs veh, BCL10 / RFU, UHRF1BP1L / Fold change vs veh, UHRF1BP1L / RFU, BET1 / Fold change vs veh, BET1 / RFU, CNOT2 / Fold change vs veh, CNOT2 / RFU, ZNF268 / Fold change vs veh, ZNF268 / Fold change vs veh, ZNF507 / RFU, DGCR2 / Fold change vs veh, DGCR2 / RFU, WDSUB1 / Fold change vs veh, WDSUB1 / Fold change vs veh, HSP90B1 /// MIR3652 / RFU, ADSS / Fold change vs veh, ADSS / RFU, GK / Fold change vs veh, GK / RFU, ZNF148 / Fold change vs veh, ZNF148 / RFU, TAF9 / Fold change vs veh, TAF9 / RFU, SLC1A5 / Fold change vs veh, SLC1A5 / RFU, SLMO2 / Fold change vs veh, SLMO2 / RFU, ABCC4 / Fold change vs veh, ABCC4 / RFU, LOC101060439 /// RAP1B / Fold change vs veh, LOC101060439 /// RAP1B / RFU, RFX7 / Fold change vs veh, RFX7 / RFU, GTPBP10 / Fold change vs veh, GTPBP10 / RFU, CNEP1R1 / Fold change vs veh, CNEP1R1 / RFU, BIVM-ERCC5 /// ERCC5 / Fold change vs veh, BIVM-ERCC5 /// ERCC5 / RFU, ILF3 / Fold change vs veh, ILF3 / RFU 11762660_at / Fold change /veh 11762660_at / RFU VCAN (11757783_s_at) / Fold change /veh VCAN (11757783_s_at) / RFU DDX43 (11728927_at) / Fold change /veh DDX43 (11728927_at) / RFU KRT8 (11758188_x_at) / Fold change /veh KRT8 (11758188_x_at) / RFU NKD1 (11759106_at) / Fold change /veh NKD1 (11759106_at) / RFU SRD5A1 (11742802_a_at) / Fold change /veh SRD5A1 (11742802_a_at) / RFU TPSAB1 /// TPSB2 (11721975_s_at) / Fold change /veh TPSAB1 /// TPSB2 (11721975_s_at) / RFU GSTM3 (11746129_a_at) / Fold change /veh GSTM3 (11746129_a_at) / RFU IL23R (11737362_x_at) / Fold change /veh IL23R (11737362_x_at) / RFU TMEM51 (11727254_a_at) / Fold change /veh TMEM51 (11727254_a_at) / RFU PIWIL2 (11732686_x_at) / Fold change /veh PIWIL2 (11732686_x_at) / RFU ORM1 (11744905_x_at) / Fold change /veh ORM1 (11744905_x_at) / RFU CCDC152 (11743942_at) / Fold change /veh CCDC152 (11743942_at) / RFU ECM1 (11717891_a_at) / Fold change /veh ECM1 (11717891_a_at) / RFU IL23R (11748794_a_at) / Fold change /veh IL23R (11748794_a_at) / RFU TNFAIP8L3 (11732012_x_at) / Fold change /veh TNFAIP8L3 (11732012_x_at) / RFU MBOAT4 (11741988_at) / Fold change /veh MBOAT4 (11741988_at) / RFU 11764193_at / Fold change /veh 11764193_at / RFU TMEM53 (11763286_at) / Fold change /veh TMEM53 (11763286_at) / RFU MAGEB2 (11727129_at) / Fold change /veh MAGEB2 (11727129_at) / RFU TMEM200A (11744735_a_at) / Fold change /veh TMEM200A (11744735_a_at) / RFU CCDC152 (11751479_a_at) / Fold change /veh CCDC152 (11751479_a_at) / RFU FAM211A (11726209_a_at) / Fold change /veh FAM211A (11726209_a_at) / RFU RGS16 (11746705_a_at) / Fold change /veh RGS16 (11746705_a_at) / RFU VCAN (11755009_s_at) / Fold change /veh VCAN (11755009_s_at) / RFU RHOB (11743442_s_at) / Fold change /veh RHOB (11743442_s_at) / RFU RGS16 (11720943_a_at) / Fold change /veh RGS16 (11720943_a_at) / RFU RGS16 (11720944_at) / Fold change /veh RGS16 (11720944_at) / RFU, VPS4B / Fold change vs veh, VPS4B / RFU, CREB1 / Fold change vs veh, CREB1 / RFU, DNAJC13 / Fold change vs veh, DNAJC13 / RFU, GNAQ / Fold change vs veh, GNAQ / RFU, CDK5R1 / Fold change vs veh, CDK5R1 / RFU, ZRANB3 / Fold change vs veh, ZRANB3 / RFU, CUL4A / Fold change vs veh, CUL4A / RFU, CCNY / Fold change vs veh, CCNY / RFU, UFL1 / Fold change vs veh, UFL1 / RFU, COG3 / Fold change vs veh, COG3 / RFU, DIAPH2 / Fold change vs veh, DIAPH2 / RFU, SKA2 / Fold change vs veh, SKA2 / RFU, AFF3 / Fold change vs veh, AFF3 / RFU, LMF1 / Fold change vs veh, LMF1 / RFU, IPO11 / Fold change vs veh, IPO11 / RFU, DFFB / Fold change vs veh, DFFB / RFU, FOXP1 / Fold change vs veh, FOXP1 / RFU, CARD8 / Fold change vs veh, CARD8 / RFU, STRN3 / Fold change vs veh, STRN3 / RFU, ADK / Fold change vs veh, ADK / RFU, RASSF2 / Fold change vs veh, RASSF2 / RFU, WIPF1 / Fold change vs veh, WIPF1 / RFU, LARP1B / Fold change vs veh, LARP1B / RFU, RASA1 / Fold change vs veh, RASA1 / RFU, RB1 / Fold change vs veh, RB1 / RFU, PPFIA1 / Fold change vs veh, PPFIA1 / RFU, MAT2A / Fold change vs veh, MAT2A / RFU, CCT5 / Fold change vs veh, CCT5 / RFU, WDR92 / Fold change vs veh, WDR92 / RFU, CUX1 / Fold change vs veh, CUX1 / RFU, TTC7A / Fold change vs veh, TTC7A / RFU, TMEM135 / Fold change vs veh, TMEM135 / RFU, DEPTOR / Fold change vs veh, DEPTOR / RFU, CPM / Fold change vs veh, CPM / RFU, DNAJB6 / Fold change vs veh, DNAJB6 / RFU, CACNA2D3 / Fold change vs veh, CACNA2D3 / RFU, DTX4 / Fold change vs veh, DTX4 / RFU, TFCP2 / Fold change vs veh, TFCP2 / RFU, GMCL1 /// GMCL1P1 / Fold change vs veh, GMCL1 /// GMCL1P1 / RFU, AEBP2 / Fold change vs veh, AEBP2 / RFU, SNHG1 /// SNORD22 /// SNORD25 /// SNORD26 /// SNORD27 /// SNORD28 /// SNORD29 /// SNORD31 / Fold change vs veh, SNHG1 /// SNORD22 /// SNORD25 /// SNORD26 /// SNORD27 /// SNORD28 /// SNORD29 /// SNORD31 / Fold change (Aza/veh), C12orf56 (ProbeSet 11735607_a_at) / Fold change (ACY-1035/veh), C12orf56 (ProbeSet 11735607_a_at) / Fold change (Aza/veh), FGFR1OP (ProbeSet 11751329_s_at) / Fold change (ACY-1035/veh), FGFR1OP (ProbeSet 11751329_s_at) / Fold change (Aza/veh), VPS36 (ProbeSet 11739960_a_at) / Fold change (ACY-1035/veh), VPS36 (ProbeSet 11739960_a_at) / RFU SYPL1 (11715823_x_at) / Fold change /veh SYPL1 (11715823_x_at) / RFU IGFBP7 (11715501_s_at) / Fold change /veh IGFBP7 (11715501_s_at) / RFU REEP3 (11722064_at) / Fold change /veh REEP3 (11722064_at) / RFU IGLL1 (11728026_x_at) / Fold change /veh IGLL1 (11728026_x_at): dose or concentration left out as unconfirmed
Conditions: ProbeSet 11733831_s_at; LIST D

Compound: Nc1ncn([C@@H]2O[C@H](CO)[C@@H](O)[C@H]2O)c(=O)n1 [azacitidine]
- RFU, GMCL1 /// GMCL1P1: 32.38 RFU
